# In US20100233241A1, “OPHTHALMIC DRUG DELIVERY SYSTEM AND APPLICATIONS” (VISTA SCIENTIFIC LLC, priority 2009, published 2010):
# Assays:
# [1] = ciprofloxacin drug release from ocular device in Purilens Plus buffer, UV spectroscopy; type: physicochemical
# Method: The following details the method utilized to monitor ciprofloxacin drug release from an ocular device of this example. Solutions of ciprofloxacin, in a concentration range of 5 ppm to 1,000 ppm, were prepared in Purilens Plus buffer (Purilens Plus is a preservative-free pH-balanced saline solution manufactured by The Lifestyle Company). A UV scanning spectrophotometer was utilized to generate a calibration curve of peak absorbance (λmax=272 nm) versus concentration, in gm/100 ml, of ciprofloxacin.
# A device from this example weighing between 100 and 150 mg was placed in a 4 ml vial. To the vial was added 3.0 ml of Purilens Plus buffer. After 24 hours at 37° C., the sample was removed and placed in another 4 ml vial and covered with 3.0 ml of fresh Purilens Plus buffer. The 24-hour release vial was capped, labeled and held for analysis. This procedure was repeated four more times to obtain 1-, 2-, 3-, 4- and 5-day release data. The sampling interval was then expanded to every 3 to 5 days and so on. The release study was carried out for a total of 60 days.
# The drug release samples were analyzed by UV spectroscopy and absorbance readings converted to weight of drug via the calibration curve.
# [2] = timolol drug release from ocular device in Unisol 4 buffer, UV spectroscopy; type: physicochemical; conditions: Example 11 polymer matrix with dissolved timolol free base; release study 90 days, 37° C., Unisol 4 buffer (FIG. 16)
# Method: The following details the method utilized to monitor timolol drug release from an ocular device of this example. Solutions of timolol maleate, in a concentration range of 5 ppm to 1,000 ppm, were prepared in Unisol® 4 buffer (Unisol® 4 is a preservative-free pH-balanced saline solution manufactured by Alcon Laboratories). A UV scanning spectrophotometer was utilized to generate a calibration curve of peak absorbance (λmax=294 nm) versus concentration, in gm/100 ml, of timolol maleate. A calibration curve for timolol free base was then generated. A device weighing between 100 and 150 mg was placed in a 4 ml vial. To the vial was added 2.0 ml of Unisol® 4 buffer. After 24 hours at 37° C., the sample was removed and placed in another 4 ml vial and covered with 2.0 ml of fresh Unisol® 4 buffer. The 24-hour release vial was capped, labeled and held for analysis. This procedure was repeated four more times to obtain 1-, 2-, 3-, 4- and 5-day release data. The sampling interval was then expanded to every 3 to 5 days and so on. The release study was carried out for a total of 90 days. The drug release samples were analyzed by UV spectroscopy and absorbance readings converted to weight of drug via the calibration curve. A plot of cumulative weight, in micrograms, of drug released versus time was generated.
"amount of ciprofloxacin released ([1]; 60 days release study, 37° C., Purilens Plus buffer, Example 12 hydrogel device, initial loading about 8.67 mg) [mg]","ciprofloxacin released, share of initial loading ([1]; in the 60 days, 4.74 mg of about 8.67 mg loading) [%]",Compound,timolol release from device [2]
4.74,55,O=C(O)c1cn(C2CC2)c2cc(N3CCNCC3)c(F)cc2c1=O [ciprofloxacin],
,,CC(C)(C)NC[C@H](O)COc1nsnc1N1CCOCC1 [timolol],releases timolol in a controlled manner over several months
